Values after ≈ are worked out from the molar mass of the structure shown. Bounds are passed on as bounds.

Consider 15 compounds from patent publication US9353090B2, “Heterocyclic carboxylic acids as activators of soluble guanylate cyclase” (Boehringer Ingelheim International GmbH, priority 2014, dated 2016).

In series [1] the target is human soluble guanylate cyclase alpha 1 and beta 1 subunits (sGC) (Homo sapiens (Human), UniProt Q02108+Q02153). Kind of series: sGC cellular activator assay (cGMP, HTRF), in the presence and absence of 50% human serum. The class given is cell-based. The note with it: CHO cells stably expressing human sGC alpha 1/beta 1, preincubated with 40 microM ODQ; cGMP by HTRF; Table 2 does not state whether with or without 50% human serum. The procedure, abridged: (§1)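 Heme-oxidized conditions: ODQ (40 microM, 1 h) pretreatment of CHO cells stably expressing human α1/β1 sGC, in buffer containing 0.1% BSA and IBMX.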
Sequence of human soluble guanylate cyclase alpha 1 and beta 1 subunits (sGC) (Homo sapiens (Human), UniProt Q02108+Q02153) (Q02108 whole entry partner): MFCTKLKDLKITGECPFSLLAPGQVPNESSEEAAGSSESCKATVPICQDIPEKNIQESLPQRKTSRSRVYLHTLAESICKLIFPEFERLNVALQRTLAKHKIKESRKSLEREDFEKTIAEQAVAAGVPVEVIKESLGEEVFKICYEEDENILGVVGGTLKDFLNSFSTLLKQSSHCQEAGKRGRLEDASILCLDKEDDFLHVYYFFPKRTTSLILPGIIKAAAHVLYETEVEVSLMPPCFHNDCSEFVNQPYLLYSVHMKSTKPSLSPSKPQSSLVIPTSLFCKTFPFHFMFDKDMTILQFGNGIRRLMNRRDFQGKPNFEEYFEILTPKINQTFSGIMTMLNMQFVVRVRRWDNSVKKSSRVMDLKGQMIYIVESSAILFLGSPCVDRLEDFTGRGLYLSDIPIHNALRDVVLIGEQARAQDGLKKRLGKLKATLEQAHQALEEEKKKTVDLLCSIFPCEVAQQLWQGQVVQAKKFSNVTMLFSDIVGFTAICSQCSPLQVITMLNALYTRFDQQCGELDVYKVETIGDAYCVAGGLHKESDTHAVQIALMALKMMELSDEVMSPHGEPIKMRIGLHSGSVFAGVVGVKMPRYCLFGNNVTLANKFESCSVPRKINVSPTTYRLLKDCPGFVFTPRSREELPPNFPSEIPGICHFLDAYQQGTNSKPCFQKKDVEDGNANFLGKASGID
Sequence of human soluble guanylate cyclase alpha 1 and beta 1 subunits (sGC) (Homo sapiens (Human), UniProt Q02108+Q02153) (Q02153 whole entry): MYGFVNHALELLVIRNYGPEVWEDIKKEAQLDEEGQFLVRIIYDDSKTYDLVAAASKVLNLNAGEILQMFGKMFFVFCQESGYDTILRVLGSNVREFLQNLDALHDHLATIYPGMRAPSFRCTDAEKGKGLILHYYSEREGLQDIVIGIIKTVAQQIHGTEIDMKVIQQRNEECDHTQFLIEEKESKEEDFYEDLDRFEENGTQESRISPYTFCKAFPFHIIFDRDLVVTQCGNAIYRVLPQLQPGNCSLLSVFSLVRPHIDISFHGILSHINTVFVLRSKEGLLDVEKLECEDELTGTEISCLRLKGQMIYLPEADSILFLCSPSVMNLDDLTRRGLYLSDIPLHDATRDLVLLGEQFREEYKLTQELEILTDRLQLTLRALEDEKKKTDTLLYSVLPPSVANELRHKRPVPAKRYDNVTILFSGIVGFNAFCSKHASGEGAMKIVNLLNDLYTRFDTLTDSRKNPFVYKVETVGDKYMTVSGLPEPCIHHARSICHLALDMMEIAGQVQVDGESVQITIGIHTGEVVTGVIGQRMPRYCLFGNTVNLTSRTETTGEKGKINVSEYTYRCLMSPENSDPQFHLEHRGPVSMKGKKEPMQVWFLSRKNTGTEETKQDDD
In general terms: TR-FRET usually uses a lanthanide donor and a delayed reading to cut background.

Series [2] in a line: Human liver microsome (HLM) metabolic stability assay. The class given is in vitro ADME. The note with it: human liver microsomes. The procedure, abridged:
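Compound at 1 uM incubated with human liver microsomes at 37° C. for 60 min after NADPH addition. Aliquots quenched in cold acetonitrile at 0, 5, 15, 30 and 60 min and analysed by LC/MS/MS. t1/2 from ln(% remaining) vs time slope; CLint, CLh and % Qh derived from it (n=1).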
In general terms: Liver microsomes are a subcellular fraction often used to study metabolism.

For series [3] the following is noted: 24 h.
The target in series [4] is human soluble guanylate cyclase alpha 1 and beta 1 subunits (sGC) (Homo sapiens (Human), UniProt Q02153). In words: sGC cellular activator assay (cGMP, HTRF), in the presence and absence of 50% human serum. The settings on record: CHO cells stably expressing human sGC alpha 1/beta 1, preincubated with 40 microM ODQ; cGMP by HTRF; Table 2 does not state whether with or without 50% human serum. It counts as cell-based. Put shortly: as §1
Sequence of human soluble guanylate cyclase alpha 1 and beta 1 subunits (sGC) (Homo sapiens (Human), UniProt Q02153) (Q02108 whole entry partner): as the sequence (Q02108 whole entry partner) above
Sequence of human soluble guanylate cyclase alpha 1 and beta 1 subunits (sGC) (Homo sapiens (Human), UniProt Q02153) (Q02153 whole entry): as the sequence (Q02153 whole entry) above

A short description of a further series: physchem. The settings on record: kinetic from dmso stock.
[5] abbreviates: pH 2.2, aqueous buffer, Solubility (pH 2.2).
Where [6] appears, read: pH 4.5, aqueous buffer, Solubility (pH 4.5).
Where [7] appears, read: pH 6.8, aqueous buffer, Solubility (pH 6.8).

Usually EC50 stands for the concentration at which the effect is half-maximal. In series [1], `COC[C@H]1N(c2cccc(-c3cccc(C)c3OCc3cc(C)c4c(c3)CCN(C3CCOC3)C4)n2)C[C@@H]2C[C@@]21C(=O)O` (single isomer, unassigned) [Compound 52] returned an EC50 of 12 nM. Moreover, the “Metabolic stability (Qh %), % hepatic blood flow” value (from here on “Metabolic stability (Qh %)”) in series [2] came to 38%. In series [3], the “Solubility (pH 2.2)” value amounted to 110 μg/mL, the “Solubility (pH 4.5)” value is reported as 93 μg/mL and the “Solubility (pH 6.8)” value came to 76 μg/mL.
The compound `CO[C@H]1CN(c2nc(-c3cccc(C)c3OCc3cc(C)c4c(c3)CCN(CC3COCCO3)C4)cs2)CC[C@H]1C(=O)O` (single isomer, unassigned) [Compound 169] gave an EC50 in series [1] of 29 nM. In addition, in series [2], the “Metabolic stability (Qh %)” value was <24%. For the same compound, in series [3], the “Solubility (pH 2.2)” value turned out to be 130 μg/mL, the “Solubility (pH 4.5)” value was 96 μg/mL and the “Solubility (pH 6.8)” value was found to be 90 μg/mL.
For the compound `Cc1c(COc2ccccc2-c2cccc(N3CC[C@@]4(C(=O)O)C[C@H]4C3)n2)ccc2c1CCN(C1CCOCC1)C2` [Compound 3], a half-maximal response in series [4] (EC50) required 3 nM. Also, in series [2], the “Metabolic stability (Qh %)” value was <24%. Moreover, in series [3], the “Solubility (pH 2.2)” value turned out to be 140 μg/mL, the “Solubility (pH 4.5)” value is given as 120 μg/mL and the “Solubility (pH 6.8)” value turned out to be 60 μg/mL.
In series [1], `Cc1cc(COc2c(C)cccc2-c2cccc(N3C[C@@H]4C[C@]4(C(=O)O)C3)n2)cc2c1CN(C1CCOC1)CC2` (stereo partly drawn) [Compound 25] showed an EC50 of 16 nM. In series [2], the “Metabolic stability (Qh %)” value was <24%. In series [3], the “Solubility (pH 2.2)” value is 100 μg/mL, the “Solubility (pH 4.5)” value was 89 μg/mL and the “Solubility (pH 6.8)” value amounted to 62 μg/mL.
The like results for `Cc1cc(COc2c(C)cccc2-c2cccc(N3C[C@@H]4C[C@]4(C(=O)O)C3)n2)cc2c1CN(C1CCOC1)CC2` (stereo partly drawn) [Compound 26] were, in that order, 9 nM, <24%, 110 μg/mL, 90 μg/mL and 67 μg/mL.
In the same order, the values of `CO[C@@H]1CN(c2cccc(-c3cc(C)ccc3OCc3cc(C)c4c(c3)CCN(C3CCOC3)C4)n2)CC[C@@H]1C(=O)O` (stereo partly drawn) [Compound 78] are 26 nM, <24%, 110 μg/mL, 91 μg/mL and 63 μg/mL.
In the same order, the values of `Cc1cc(COc2c(C)cccc2-c2csc(N3CC[C@@]4(C(=O)O)C[C@H]4C3)n2)cc2c1CN(CC1COCCO1)CC2` (stereo partly drawn) [Compound 93] are 2 nM, <24%, 140 μg/mL, 70 μg/mL and 51 μg/mL.
In turn, `CO[C@@H]1CN(c2nc(-c3cccc(C)c3OCc3cc(C)c4c(c3)CCN(CC3COCCO3)C4)cs2)CC[C@@H]1C(=O)O` (stereo partly drawn) [Compound 176] yielded an EC50 in series [1] of 64 nM. Further, the “Metabolic stability (Qh %)” value in series [2] is given as <24%. Further, in series [3], the “Solubility (pH 2.2)” value is listed as 140 μg/mL, the “Solubility (pH 4.5)” value was 95 μg/mL and the “Solubility (pH 6.8)” value is recorded as 89 μg/mL.
Broadly, the solubility is the dissolved amount per volume that the medium holds. Read a high solubility as much dissolved substance. For the compound `CO[C@@H]1CN(c2nc(-c3cc(F)cc(C)c3OCc3ccc4c(c3C)CCN(C3COC3)CC4)cs2)CC[C@@H]1C(=O)O` [Compound 327], the EC50 in series [1] turned out to be 5 nM. Further, in series [2], the “Metabolic stability (Qh %)” value amounted to 61%. Moreover, the results for the solubility at 24 h in “physchem” (setting [5]), in the series “physchem” (setting [6]) and in “physchem” (setting [7]) were 99.8 µg/mL (≈ 168 µM), 51.8 µg/mL (≈ 87 µM) and 59.1 µg/mL (≈ 99.2 µM), respectively.
In the same order, the values of `CO[C@@H]1CN(c2nc(-c3cc(F)cc(C)c3OCc3ccc4c(c3)[C@@H](C)CN(C3CCOCC3)CC4)cs2)CC[C@@H]1C(=O)O` [Compound 328] are 2 nM, 45%, 97.4 µg/mL (≈ 156 µM), 59.4 µg/mL (≈ 95.2 µM) and 56.8 µg/mL (≈ 91.1 µM).
The like results for `CO[C@@H]1CN(c2nc(-c3cc(F)cc(C)c3OCc3ccc4c(c3C)CCN(C3CCOCC3)CC4)cs2)CC[C@@H]1C(=O)O` [Compound 329] were, in that order, 13 nM, <24%, 103 µg/mL (≈ 164 µM), 63.9 µg/mL (≈ 102 µM) and 68 µg/mL (≈ 109 µM).
In series [1], `CO[C@@H]1CN(c2nc(-c3cccc(Cl)c3OCc3ccc4c(c3)[C@@H](C)CN(C3CCOCC3)CC4)cs2)CC[C@@H]1C(=O)O` [Compound 332] returned an EC50 of 15 nM. Besides, the “Metabolic stability (Qh %)” value in series [2] is reported as <24%. The solubility at 24 h in “physchem” (setting [5]) was 127 µg/mL (≈ 202 µM); in “physchem” (setting [6]) it was 86.6 µg/mL (≈ 138 µM); in the series “physchem” (setting [7]), 76.8 µg/mL (≈ 123 µM).
The like results for `Cc1cccc(-c2cccc(N3CC[C@H](C(=O)O)[C@@H]4OCCC[C@H]43)n2)c1OCc1ccc2c(c1C)CCN(C1COC1)CC2` [Compound 336] were, in that order, 54 nM, 32%, 69.9 µg/mL (≈ 117 µM), 37.6 µg/mL (≈ 62.9 µM) and 30 µg/mL (≈ 50.2 µM).
In the same order, the values of `Cc1cccc(-c2cccc(N3CC[C@H](C(=O)O)[C@@H]4OCCC[C@H]43)n2)c1OCc1ccc2c(c1C)CCN(C1CCOCC1)CC2` [Compound 337] are 130 nM, <24%, 113 µg/mL (≈ 181 µM), 80.5 µg/mL (≈ 129 µM) and 78 µg/mL (≈ 125 µM).
The like results for `CO[C@@H]1CN(c2cccc(-c3cccc(C)c3OCc3cc(C)c4c(c3)CN(C3CCOCC3)C4)n2)CC[C@@H]1C(=O)O` [Compound 338] were, in that order, 24 nM, <24%, 132 µg/mL (≈ 230 µM), 106 µg/mL (≈ 185 µM) and 73.6 µg/mL (≈ 129 µM).
